In patent EP1576946A1, “Use of inhibitors of gram-positive cocci in deodorants and antiperspirants” (Henkel Kommanditgesellschaft auf Aktien, priority 2004, dated 2005):

Test system: Anaerococcus octavius (Peptostreptococcus octavius)
Assay: Filter paper/surface method: inhibition zone and growth under the filter disc
Type: cell-based
Procedure: Weiterhin wurden die Wirkstoffe mit Hilfe des Filterpapier/Oberflächenverfahrens vermessen. Der Testkeim Anaerococcus octavius (Peptostreptococcus octavius) war erhältlich als DSM 10024; er wurde 5 Tage bei 37 °C vorinkubiert. 0,3 ml Wirkstofflösung bzw. 0,3 g wirkstoffhaltiges Produkt wurden auf eine Filterpapierscheibe mit einem Durchmesser von 4,5 cm aufgebracht, anschließend wurde die Filterpapierscheibe auf den bakterienhaltigen Agar gelegt. Nach der Inkubationszeit wurde die Größe des gebildeten Hemmhofes vermessen. Bei den Lösungen, für die kein Hemmhof detektiert werden konnte, weil der Wirkstoff nicht in den Agar penetriert war, wurde zusätzlich das Wachstum unter den Filterpapierscheiben beurteilt.

[1] = 8 Gew.-% Aktivsubstanz, medium Wasser/ Ethanol (30 Vol.-% / 70 Vol.-%), pH after adjustment 4,2
[2] = 20 Gew.-% Aktivsubstanz, medium Wasser, pH after adjustment 4,2
[3] = 0,5 Gew.-% Aktivsubstanz, medium Wasser, pH tel quel 6,5, after addition of Citronensäure 5,1
[4] = 22 Gew.-% Aktivsubstanz, medium Wasser, pH after adjustment ca. 4

Compound: Aluminium chlorohydrate
- Durchmesser des Hemmhofes [1]: 0 mm
- Wachstum unter der Filterscheibe [1]: deutlich gehemmt
- Durchmesser des Hemmhofes [2]: 0 mm
- Wachstum unter der Filterscheibe [2]: leicht gehemmt

Compound: Zinkgluconat
- Durchmesser des Hemmhofes [3]: 0 mm
- Wachstum unter der Filterscheibe [3]: deutlich gehemmt

Compound: Aluminium Zirconium Tetrachlorohydrex Gly [REACH AZP 908 (Powder)]
- Durchmesser des Hemmhofes [4]: 0 mm
- Wachstum unter der Filterscheibe [4]: kein Wachstum

Compound: O=C(O)CCCCCCC/C=C\CCCCCCCC(=O)O [Arlatone DCA, 9(Z)-Octadecendicarbonsäure]
- Wachstum unter der Filterscheibe (2 Gew.-% Aktivsubstanz, medium Ethanol): kein Wachstum
- zone of inhibition at 2 % (Anaerococcus octavius, 2 Gew.-% Aktivsubstanz, medium Ethanol, read-out: Durchmesser des Hemmhofes): 4 mm

Compound: CCCCC(CC)COCC(O)CO (stereo not drawn) [Sensiva SC 50, α-Mono-(2-ethylhexyl)glycerinether]
- Wachstum unter der Filterscheibe (0,5 Gew.-% Aktivsubstanz, medium Wasser/ Ethanol (50 Vol.-% / 50 Vol.-%), pH tel quel 6,65, after addition of Citronensäure 5,1): deutlich gehemmt
- zone of inhibition at 0.5 % (Anaerococcus octavius, read-out: Durchmesser des Hemmhofes): 0 mm
